According to patent US11111245B2, “Derivatives of N-cycloalkyl/heterocycloalkyl-4-(imidazo[1,2-a]pyridine)pyrimidin-2-amine as therapeutic agents” (Aucentra Therapeutics Pty Ltd, priority 2017, dated 2021):
pKi: −log10 of the molar value. Where two headings read alike, the source gives them in different places.

Key:
Format in all cases: biochemical
[1] = target: CDK9/T1 (Homo sapiens, UniProt P50750); test: ADP Glo Kinase assay CDK9/T1; settings: for Ki: CDK9T1, read-out: CDK inhibition, Ki (μM) CDK9T1
Chain of CDK9/T1 (P50750 whole entry): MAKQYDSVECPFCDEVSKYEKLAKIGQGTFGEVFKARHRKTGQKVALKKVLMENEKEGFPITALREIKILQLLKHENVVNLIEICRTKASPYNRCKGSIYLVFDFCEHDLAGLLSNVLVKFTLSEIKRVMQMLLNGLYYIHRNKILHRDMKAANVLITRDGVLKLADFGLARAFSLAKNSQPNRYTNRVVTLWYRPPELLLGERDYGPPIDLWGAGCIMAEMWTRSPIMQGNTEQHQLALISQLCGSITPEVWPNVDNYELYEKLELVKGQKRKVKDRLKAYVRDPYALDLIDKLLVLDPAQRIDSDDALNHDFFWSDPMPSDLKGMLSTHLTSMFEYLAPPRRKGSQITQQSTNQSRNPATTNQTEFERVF
Chain of CDK9/T1 (O60563 whole entry partner): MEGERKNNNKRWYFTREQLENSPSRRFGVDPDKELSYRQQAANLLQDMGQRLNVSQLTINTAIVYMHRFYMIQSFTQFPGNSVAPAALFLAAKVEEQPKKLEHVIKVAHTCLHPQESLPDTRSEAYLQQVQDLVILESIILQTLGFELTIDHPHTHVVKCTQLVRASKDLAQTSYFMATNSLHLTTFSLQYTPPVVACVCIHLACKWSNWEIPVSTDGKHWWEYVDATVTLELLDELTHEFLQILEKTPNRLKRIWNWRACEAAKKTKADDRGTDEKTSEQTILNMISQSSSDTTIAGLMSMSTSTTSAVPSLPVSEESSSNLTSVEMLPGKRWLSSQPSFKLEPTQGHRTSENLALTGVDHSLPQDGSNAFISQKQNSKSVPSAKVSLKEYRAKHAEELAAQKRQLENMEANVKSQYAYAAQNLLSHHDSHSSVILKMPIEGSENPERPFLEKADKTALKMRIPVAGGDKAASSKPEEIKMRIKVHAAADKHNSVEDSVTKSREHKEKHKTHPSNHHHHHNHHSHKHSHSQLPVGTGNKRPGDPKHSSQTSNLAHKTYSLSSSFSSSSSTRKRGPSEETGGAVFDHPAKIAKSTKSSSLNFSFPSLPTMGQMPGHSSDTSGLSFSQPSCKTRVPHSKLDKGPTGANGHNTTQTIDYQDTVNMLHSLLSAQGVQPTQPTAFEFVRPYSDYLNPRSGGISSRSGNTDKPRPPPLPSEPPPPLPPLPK
Summary of the method: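 CDK4/D1 and CDK6/D3 were run in […] Tris pH 7.5, 20 mM MgCl2, 0.4 mM DTT, 0.1 mg/ml BSA with RB-CTF substrate; CDK9/T1 used RBER-IRStide. ATP-started reactions ran 40 min at 37° C, with ADP Glo luminescence read-out. IC50 came from 4-parameter fits; Ki from Km (ATP) and IC50.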

[2] = target: CDK4/D1 (Homo sapiens, UniProt P11802); test: ADP Glo Kinase assay CDK4/D1; settings: CDK4D1; for Ki: read-out: CDK inhibition, Ki (μM) CDK4D1; for remaining activity at 10 µM: compound at 10 μM, read-out: residual activity (%) at 10 μM CDK4D1
Chain of CDK4/D1 (P11802 whole entry): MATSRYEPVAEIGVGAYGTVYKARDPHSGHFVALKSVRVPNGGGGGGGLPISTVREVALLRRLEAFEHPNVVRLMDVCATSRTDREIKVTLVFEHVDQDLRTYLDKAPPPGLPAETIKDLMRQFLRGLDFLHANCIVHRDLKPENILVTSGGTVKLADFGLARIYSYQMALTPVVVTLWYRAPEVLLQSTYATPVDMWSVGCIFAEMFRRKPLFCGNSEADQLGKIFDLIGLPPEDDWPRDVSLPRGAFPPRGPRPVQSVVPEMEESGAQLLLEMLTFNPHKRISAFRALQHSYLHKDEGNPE
Chain of CDK4/D1 (P24385 whole entry partner): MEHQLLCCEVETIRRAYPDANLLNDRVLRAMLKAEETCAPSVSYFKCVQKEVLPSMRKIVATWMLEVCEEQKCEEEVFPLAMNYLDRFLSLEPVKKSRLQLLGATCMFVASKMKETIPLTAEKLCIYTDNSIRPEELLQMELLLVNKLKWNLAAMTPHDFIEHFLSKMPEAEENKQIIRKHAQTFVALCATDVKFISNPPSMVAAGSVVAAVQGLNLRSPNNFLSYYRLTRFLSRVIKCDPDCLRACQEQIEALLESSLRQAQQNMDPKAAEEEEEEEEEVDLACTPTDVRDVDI
Summary of the method: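 In-house ADP-Glo assay: CDK4/D1 or CDK6/D3 with RB-CTF substrate in […] Tris pH 7.5, 20 mM MgCl2, 0.4 mM DTT, 0.1 mg/ml BSA; ATP-started, 40 min at 37° C.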

[3] = target: CDK6/D3 (Homo sapiens, UniProt Q00534); test: ADP Glo Kinase assay CDK6/D3; settings: CDK6D3; for Ki: read-out: CDK inhibition, Ki (μM) CDK6D3; for remaining activity at 10 µM: compound at 10 μM, read-out: residual activity (%) at 10 μM CDK6D3
Chain of CDK6/D3 (Q00534 whole entry): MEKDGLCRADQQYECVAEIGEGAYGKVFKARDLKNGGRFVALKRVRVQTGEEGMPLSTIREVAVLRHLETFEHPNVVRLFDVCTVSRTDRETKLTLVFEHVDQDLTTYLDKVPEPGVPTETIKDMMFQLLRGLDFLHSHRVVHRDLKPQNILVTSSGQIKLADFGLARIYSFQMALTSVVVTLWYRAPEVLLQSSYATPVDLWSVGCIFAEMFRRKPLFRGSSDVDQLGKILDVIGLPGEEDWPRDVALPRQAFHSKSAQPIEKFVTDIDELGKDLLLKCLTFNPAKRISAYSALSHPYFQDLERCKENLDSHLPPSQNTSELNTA
Chain of CDK6/D3 (P30281 whole entry partner): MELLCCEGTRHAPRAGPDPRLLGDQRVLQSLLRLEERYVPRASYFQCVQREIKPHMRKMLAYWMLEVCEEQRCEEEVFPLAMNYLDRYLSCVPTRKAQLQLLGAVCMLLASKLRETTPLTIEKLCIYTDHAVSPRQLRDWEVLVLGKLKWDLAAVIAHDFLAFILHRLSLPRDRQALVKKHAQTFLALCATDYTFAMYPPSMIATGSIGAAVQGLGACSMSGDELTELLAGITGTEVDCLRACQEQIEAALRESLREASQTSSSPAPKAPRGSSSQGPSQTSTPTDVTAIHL
Experimental: Eurofins Pharma Discovery or Reaction Biology Corporation Kinase Profiler services were used to measure inhibition of CDKs and other kinases by radiometric assay. Inhibition of CDK4/D1, CDK6/D3 and CDK9/T1 were also determined in-house using ADP Glo Kinase assays (Promega Corporation, Madison, USA). Briefly, the kinase reaction for CDK4/D1 and CDK6/D3 was performed with kinase reaction buffer ([…] Tris base pH 7.5, 20 mM MgCl2, 0.4 mM DTT), 0.1 mg/ml BSA and RB-CTF substrate (retinoblastoma protein 1 C-terminal fraction). For CDK9/CyclinT1, the kinase reaction was performed with standard assay buffer and Kinase Dilution Buffer and RBER-IRStide substrate. Serial dilutions of 1:3 were prepared for test compounds for 10 concentrations (from 10 μM to 0.5 nM). The kinase reactions were started by addition of ATP, incubated for 40 min at 37° C. and then stopped by adding 10 μL of ADP Glo reagent. After incubation at room temperature in the dark for 40 min, 20 μL of kinase detection reagent was added per well and incubated for 40 min. Luminescence was measured using an EnVision Multilabel plate reader (PerkinElmer, Buckinghamshire, UK). Positive and negative controls were performed in the presence and absence of CDK kinases, respectively. Half-maximal inhibition (IC50) values were calculated using a 4-parameter logistic non-linear regression model with Graphpad prism (Version 6.0). Apparent inhibition constants (Ki) values were calculated from Km (ATP) and IC50 values for the respective kinases.

[4] = target: T1, CDKs and other kinases (Homo sapiens, UniProt P24941); test: Radiometric kinase assay (Eurofins Pharma Discovery or Reaction Biology Corporation Kinase Profiler); settings: CDK2A; for Ki: read-out: CDK inhibition, Ki (μM) CDK2A; for remaining activity at 10 µM: compound at 10 μM, read-out: residual activity (%) at 10 μM CDK2A
T1 construct: other: CDK2A; residual activity (%) at 10 μM CDK2A; compound at 10 μM
Summary of the method: (§1)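 Other CDKs and further kinases were profiled externally by radiometric assay. In-house ADP Glo assays covered CDK4/D1 and CDK6/D3 (RB-CTF substrate, pH 7.5 Tris buffer with MgCl2, DTT, BSA) and CDK9/T1 (RBER-IRStide substrate), 40 min at 37° C.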

[5] = target: T2, CDKs and other kinases (Homo sapiens, UniProt P06493); test: as above; settings: CDK1B; for Ki: read-out: CDK inhibition, Ki (μM) CDK1B; for remaining activity at 10 µM: compound at 10 μM, read-out: residual activity (%) at 10 μM CDK1B
T2 construct: other: CDK1B; residual activity (%) at 10 μM CDK1B; compound at 10 μM
T2 sequence (P06493 whole entry): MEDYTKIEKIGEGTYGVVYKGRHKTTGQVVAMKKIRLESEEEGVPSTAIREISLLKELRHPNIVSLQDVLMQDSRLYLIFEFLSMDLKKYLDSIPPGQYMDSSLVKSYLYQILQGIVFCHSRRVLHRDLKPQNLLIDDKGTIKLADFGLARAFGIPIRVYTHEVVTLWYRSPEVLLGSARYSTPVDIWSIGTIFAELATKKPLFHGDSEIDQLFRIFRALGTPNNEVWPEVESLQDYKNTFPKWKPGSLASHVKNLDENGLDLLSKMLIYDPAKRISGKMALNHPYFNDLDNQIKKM
Summary of the method: as §1

[6] = target: T3, CDKs and other kinases (Homo sapiens, UniProt P50613); test: as above; settings: for Ki / remaining activity at 10 µM: CDK7H; for Ki: read-out: CDK inhibition, Ki (μM) CDK7H; for remaining activity at 10 µM: compound at 10 μM, read-out: residual activity (%) at 10 μM CDK7H
T3 construct: other: CDK7H; residual activity (%) at 10 μM CDK7H; compound at 10 μM
T3 sequence (P50613 whole entry): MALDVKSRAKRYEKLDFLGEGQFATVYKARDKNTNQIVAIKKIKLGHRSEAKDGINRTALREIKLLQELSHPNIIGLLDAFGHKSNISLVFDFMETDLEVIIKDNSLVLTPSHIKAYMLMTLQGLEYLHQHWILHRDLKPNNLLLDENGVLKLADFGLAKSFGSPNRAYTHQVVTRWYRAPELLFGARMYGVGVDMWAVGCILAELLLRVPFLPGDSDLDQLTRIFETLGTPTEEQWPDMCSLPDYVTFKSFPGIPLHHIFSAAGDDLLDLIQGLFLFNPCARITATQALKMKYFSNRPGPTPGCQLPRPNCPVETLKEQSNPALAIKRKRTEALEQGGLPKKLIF
Summary of the method: as §1

Compound | Ki [1] [µM] | Ki [2] [µM] | Ki [3] [µM] | Ki [4] [µM] | Ki [5] [µM] | Ki [6] [µM] | remaining activity at 10 µM [2] [%] | remaining activity at 10 µM [3] [%] | remaining activity at 10 µM [4] [%] | remaining activity at 10 µM [5] [%] | remaining activity at 10 µM [6] [%] | pKi [1] | pKi [6] | residual activity at 10 µM [2] [%]
CNC1CCC(Nc2ncc(C)c(-c3cnc4ccc(Nc5cncnc5)cn34)n2)CC1 (stereo not drawn) [Compound 109, N^1-Methyl-N^4-(5-Methyl-4-(6-(pyrimidin-5-ylamino)imidazo[1,2-a]pyridin-3-yl)pyrimidin-2-yl)cyclohexane-1,4-diamine] | 0.008 | 0.94 | 0.21 | 0.18 | 1.26 | > 10 | – | – | – | – | – | – | – | –
N[C@H]1CC[C@H](Nc2ncc(F)c(-c3cnc4ccc(Nc5cncnc5)cn34)n2)CC1 [Compound 50, (1r,4r)-N^1-(5-Fluoro-4-(6-(pyrimidin-5-ylamino)imidazo [1,2-a]pyridin-3-yl)pyrimidin-2-yl)cyclohexane-1,4-diamine] | 0.003 | – | – | – | – | – | 14 | 4 | 0 | 1 | 4 | – | – | –
N[C@H]1CC[C@H](Nc2ncc(F)c(-c3cnc4ccc(Nc5cccnc5)cn34)n2)CC1 [Compound 49, (1r,4r)-N^1-(5-Fluoro-4-(6-(pyridin-3-ylamino)imidazo [1,2-a]pyridin-3-yl)pyrimidin-2-yl)cyclohexane-1,4-diamine] | 0.003 | – | – | – | – | – | 0 | 5 | 0 | 1 | 3 | – | – | –
Cc1cnc(N[C@H]2CC[C@H](NC(C)C)CC2)nc1-c1cnc2ccc(Nc3cncnc3)cn12 [Compound 121, (1r,4r)-N^1-Isopropyl-N^4-(5-methyl-4-(6-(pyrimidin-5-ylamino)imidazo[1,2-a]pyridin-3-yl)pyrimidin-2-yl) cyclohexane-1,4-diamine] | 0.032 | 2.21 | – | 0.86 | 0.78 | 3.86 | – | 47 | – | – | – | – | – | –
Cc1cnc(N[C@H]2CN3CCC2CC3)nc1-c1cnc2ccc(Nc3cncnc3)cn12 [Compound 76, (R)-N-(5-Methyl-4-(6-(pyrimidin-5-ylamino)imidazo [1,2-a]pyridin-3-yl)pyrimidin-2-yl)quinuclidin-3-amine] | 0.485 | – | – | – | – | – | 91 | 89 | 59 | 72 | 92 | – | – | –
Cc1cnc(N[C@H]2CC[C@H](N3CC3)CC2)nc1-c1cnc2cc(Nc3cncnc3)ccn12 [Compound 119, 3-(2-(((1r,4r)-4-(Aziridin-1-yl)cyclohexyl)amino)-5-methylpyrimidin-4-yl)-N-(pyrimidin-5-yl)imidazo[1,2-a] pyridin-7-amine] | – | 0.64 | 0.54 | 0.14 | 0.623 | – | – | – | – | – | – | 8.40 | 6.92 | –
Cc1cnc(N[C@H]2CC[C@H](N)CC2)nc1-c1cnc2cc(Nc3cncnc3)ccn12 [Compound 56, (1r,4r)-N^1-(5-Methyl-4-(7-(pyrimidin-5-ylamino)imidazo [1,2-a]pyridin-3-yl)pyrimidin-2-yl)cyclohexane-1,4-diamine] | 0.051 | – | – | – | – | – | 0 | 5 | 12 | 39 | 22 | – | – | –
N[C@H]1CC[C@H](Nc2ncc(Cl)c(-c3cnc4cc(-c5cccnc5)ccn34)n2)CC1 [Compound 78, (1r,4r)-N^1-(5-Chloro-4-(7-(pyridin-3-yl)imidazo[1,2-a]pyridin-3-yl)pyrimidin-2-yl)cyclohexane-1,4-diamine] | 0.019 | – | – | – | – | – | 10 | 3 | 0 | 7 | 3 | – | – | –
Cc1cnc(N[C@H]2CC[C@H](N)CC2)nc1-c1cnc2ccc(Oc3cncnc3)cn12 [Compound 75, (1r,4r)-N^1-(5-Methyl-4-(6-(pyrimidin-5-yloxy)imidazo [1,2-a]pyridin-3-yl)pyrimidin-2-yl)cyclohexane-1,4-diamine] | 0.034 | – | – | – | – | – | 41 | 46 | 22 | 52 | 50 | – | – | –
N[C@H]1CC[C@H](Nc2ncc(Cl)c(-c3cnc4cc(-c5ccccc5)ccn34)n2)CC1 [Compound 77, (1r,4r)-N^1-(5-Chloro-4-(7-phenylimidazo[1,2-a]pyridin-3-yl)pyrimidin-2-yl)cyclohexane-1,4-diamine] | 0.011 | – | – | – | – | – | 5 | 6 | 0 | 5 | 3 | – | – | –
Cc1cnc(N[C@H]2CC[C@H](N)CC2)nc1-c1cnc2ccc(Nc3cncc(C(F)(F)F)c3)cn12 [Compound 65, (1r,4r)-N^1-(5-Methyl-4-(6-((5-(trifluoromethyl)pyridin-3-yl)amino)imidazo[1,2-a]pyridin-3-yl)pyrimidin-2-yl) cyclohexane-1,4-diamine] | 0.024 | – | – | – | – | – | – | 24 | 12 | 32 | 31 | – | – | 125
Cc1cnc(N[C@H]2CC[C@H](N)CC2)nc1-c1cnc2ccc(N(C)c3cccnc3)cn12 [Compound 122, (1r,4r)-N^1-(5-Methyl-4-(6-(methyl(pyridin-3-yl)amino)imidazo[1,2-a]pyridin-3-yl)pyrimidin-2-yl)cyclohexane-1,4-diamine] | 0.3 | – | – | 1.15 | 1.71 | 1.16 | 71 | 44 | – | – | – | – | – | –
Cc1cnc(N[C@H]2CC[C@H](N)CC2)nc1-c1cnc2ccc(Nc3cncc(F)c3)cn12 [Compound 66, (1r,4r)-N^1-(4-(6-((5-Fluoropyridin-3-yl)amino)imidazo [1,2-a]pyridin-3-yl)-5-methylpyrimidin-2-yl)cyclohexane-1,4-diamine] | 0.007 | 0.76 | 0.33 | 0.18 | 1.26 | 3.25 | – | – | – | – | – | – | – | –
Cc1cnc(N2CCC3(CCNC3=O)CC2)nc1-c1cnc2ccc(-c3ccccc3)cn12 [Compound 125, 8-(5-Methyl-4-(6-phenylimidazo[1,2-a]pyridin-3-yl)pyrimidin-2-yl)-2,8-diazaspiro[4.5]decan-1-one] | 2.88 | – | – | 3.94 | > 5 | 4.56 | 100 | 92 | – | – | – | – | – | –
C[C@]12C[C@]3(C)C[C@](O)(C1)C[C@](Nc1ncc(F)c(-c4cnc5ccc(Nc6cncnc6)cn45)n1)(C2)C3 [Compound 111, (1s,3r,5R,7S)-3-((5-Fluoro-4-(6-(pyrimidin-5-ylamino)imidazo[1,2-a]pyridin-3-yl)pyrimidin-2-yl)amino)-5,7-dimethyladamantan-1-ol] | 0.108 | – | – | – | – | – | 29 | 89 | 11 | 20 | 86 | – | – | –
